Experimental data from ChEMBL document CHEMBL2440076, “New triarylpyrazoles as broad-spectrum anticancer agents: design, synthesis, and biological evaluation” (Eur J Med Chem, 2013).

Legend:
[1] = system: CAKI-1; assay: Growth inhibition of human CAKI-1 cells after 48 hrs by sulforhodamine B assay; format: functional; conditions: CAKI-1, 48 h
[2] = system: K562; assay: Growth inhibition of human K562 cells after 48 hrs by sulforhodamine B assay; format: functional; conditions: K562, 48 h
[3] = system: HCT-15; assay: Growth inhibition of human HCT15 cells after 48 hrs by sulforhodamine B assay; format: functional; conditions: HCT-15, 48 h
[4] = system: UO-31; assay: Growth inhibition of human UO31 cells assessed as cell growth at 10 uM after 48 hrs by sulforhodamine B assay; format: functional; conditions: UO-31, 48 h, read-out: Activity
[5] = system: MCF7; assay: Growth inhibition of human MCF7 cells assessed as cell growth at 10 uM after 48 hrs by sulforhodamine B assay; format: functional; conditions: MCF7, 48 h, read-out: Activity
[6] = system: IGROV-1; assay: Growth inhibition of human IGROV1 cells assessed as cell growth at 10 uM after 48 hrs by sulforhodamine B assay; format: functional; conditions: IGROV-1, 48 h, read-out: Activity
[7] = system: HL-60(TB); assay: Growth inhibition of human HL-60(TB) cells assessed as cell growth at 10 uM after 48 hrs by sulforhodamine B assay; format: functional; conditions: HL-60, 48 h, read-out: Activity
[8] = system: NCI-H522; assay: Growth inhibition of human NCI-H522 cells assessed as cell growth at 10 uM after 48 hrs by sulforhodamine B assay; format: functional; conditions: NCI-H522, 48 h, read-out: Activity
[9] = system: SNB-75; assay: Growth inhibition of human SNB75 cells after 48 hrs by sulforhodamine B assay; format: functional; conditions: SNB-75, 48 h
[10] = system: TK-10; assay: Growth inhibition of human TK10 cells after 48 hrs by sulforhodamine B assay; format: functional; conditions: TK-10, 48 h
[11] = system: OVCAR-4; assay: Growth inhibition of human OVCAR4 cells assessed as cell growth at 10 uM after 48 hrs by sulforhodamine B assay; format: functional; conditions: OVCAR-4, 48 h, read-out: Activity
[12] = system: SW-620; assay: Growth inhibition of human SW620 cells after 48 hrs by sulforhodamine B assay; format: functional; conditions: SW-620, 48 h
[13] = Growth inhibition of human NCI-ADR-RES cells after 48 hrs by sulforhodamine B assay; format: functional
[14] = system: SK-MEL-28; assay: Growth inhibition of human SK-MEL-28 cells assessed as cell growth at 10 uM after 48 hrs by sulforhodamine B assay; format: functional; conditions: SK-MEL-28, 48 h, read-out: Activity
[15] = system: UACC-62; assay: Growth inhibition of human UACC62 cells assessed as cell growth at 10 uM after 48 hrs by sulforhodamine B assay; format: functional; conditions: UACC-62, 48 h, read-out: Activity
[16] = system: MDA-MB-231; assay: Growth inhibition of human MDA-MB-231 cells after 48 hrs by sulforhodamine B assay; format: functional; conditions: MDA-MB-231, 48 h
[17] = system: OVCAR-3; assay: Growth inhibition of human OVCAR3 cells after 48 hrs by sulforhodamine B assay; format: functional, cell-based; conditions: OVCAR-3, 48 h
[18] = Growth inhibition of human Hs 578T cells after 48 hrs by sulforhodamine B assay; format: functional
[19] = system: Malme-3M; assay: Growth inhibition of human MALME-3M cells after 48 hrs by sulforhodamine B assay; format: functional
[20] = system: SK-OV-3; assay: Growth inhibition of human SKOV3 cells assessed as cell growth at 10 uM after 48 hrs by sulforhodamine B assay; format: functional; conditions: SK-OV-3, 48 h, read-out: Activity
[21] = system: RPMI-8226; assay: Growth inhibition of human RPMI8226 cells after 48 hrs by sulforhodamine B assay; format: functional, cell-based; conditions: RPMI-8226, 48 h
[22] = system: SNB-19; assay: Growth inhibition of human SNB19 cells assessed as cell growth at 10 uM after 48 hrs by sulforhodamine B assay; format: functional; conditions: SNB-19, 48 h, read-out: Activity
[23] = system: SW-620; assay: Growth inhibition of human SW620 cells assessed as cell growth at 10 uM after 48 hrs by sulforhodamine B assay; format: functional; conditions: SW-620, 48 h, read-out: Activity
[24] = system: HOP-92; assay: Growth inhibition of human HOP92 cells assessed as cell growth at 10 uM after 48 hrs by sulforhodamine B assay; format: functional; conditions: HOP-92, 48 h, read-out: Activity
[25] = system: OVCAR-3; assay: Growth inhibition of human OVCAR3 cells assessed as cell growth at 10 uM after 48 hrs by sulforhodamine B assay; format: functional; conditions: OVCAR-3, 48 h, read-out: Activity
[26] = system: A549; assay: Growth inhibition of human A549/ATCC cells after 48 hrs by sulforhodamine B assay; format: functional; conditions: A549, 48 h
[27] = system: SF-539; assay: Growth inhibition of human SF539 cells assessed as cell growth at 10 uM after 48 hrs by sulforhodamine B assay; format: functional; conditions: SF-539, 48 h, read-out: Activity
[28] = system: T47D; assay: Growth inhibition of human T47D cells after 48 hrs by sulforhodamine B assay; format: functional
[29] = system: HOP-92; assay: Growth inhibition of human HOP92 cells after 48 hrs by sulforhodamine B assay; format: functional, cell-based; conditions: HOP-92, 48 h
[30] = system: A498; assay: Growth inhibition of human A498 cells after 48 hrs by sulforhodamine B assay; format: functional, cell-based; conditions: A498, 48 h
[31] = system: ACHN; assay: Growth inhibition of human ACHN cells assessed as cell growth at 10 uM after 48 hrs by sulforhodamine B assay; format: functional; conditions: read-out: Activity
[32] = system: NCI-H460; assay: Growth inhibition of human NCI-H460 cells after 48 hrs by sulforhodamine B assay; format: functional; conditions: NCI-H460, 48 h
[33] = Growth inhibition of human NCI-ADR-RES cells assessed as cell growth at 10 uM after 48 hrs by sulforhodamine B assay; format: functional; conditions: read-out: Activity
[34] = Growth inhibition of human HCC2998 cells after 48 hrs by sulforhodamine B assay; format: functional; conditions: HCC 2998, 48 h
[35] = read-out: LC50 (the source's name)

SMILES: COc1cc(-c2nn(-c3cccc(NC(=O)Nc4ccc(Cl)c(Cl)c4)c3)cc2-c2ccncc2)ccc1Cl
- GI50 [1]: 1120 nM
- TGI [1]: 3700 nM
- CC50 [1, 35]: > 50000 nM
- GI50 [2]: 890 nM
- TGI [2]: > 50000 nM
- CC50 [2, 35]: > 50000 nM
- GI50 [3]: 1230 nM
- LC50 [3]: > 50000 nM
- TGI [3]: > 50000 nM
- growth at 10 µM [4]: 15.9%
- growth at 10 µM [5]: 1.73%
- growth at 10 µM [6]: 23.9%
- growth at 10 µM [7]: -18.1%
- growth at 10 µM [8]: -14.7%
- GI50 [9]: 1050 nM
- LC50 (lethal concentration, 50% net cell kill) [9]: > 50000 nM
- TGI [9]: 5170 nM
- GI50 [10]: 1430 nM
- TGI [10]: 40900 nM
- CC50 [10, 35]: > 50000 nM
- growth at 10 µM [11]: 19.8%
- GI50 [12]: 1590 nM
- TGI [12]: > 50000 nM
- CC50 [12, 35]: > 50000 nM
- GI50 [13]: 990 nM
- TGI [13]: 4670 nM
- CC50 [13, 35]: > 50000 nM
- growth at 10 µM [14]: 4.96%
- growth at 10 µM [15]: -65.1%
- GI50 [16]: 698 nM
- LC50 [16]: 12900 nM
- TGI [16]: 1920 nM
- GI50 [17]: 697 nM
- IC50 [17]: 700 nM
- TGI [17]: 2270 nM
- CC50 [17, 35]: > 50000 nM
- GI50 [18]: 1430 nM
- TGI [18]: > 50000 nM
- CC50 [18, 35]: > 50000 nM
- GI50 [19]: 926 nM
- LC50 (concentration killing 50% of starting cells) [19]: > 50000 nM
- TGI [19]: 2420 nM
- growth at 10 µM [20]: 11.8%
- GI50 [21]: 388 nM
- IC50 [21]: 390 nM
- TGI [21]: 3260 nM
- CC50 [21, 35]: > 50000 nM
- growth at 10 µM [22]: 27.2%
- growth at 10 µM [23]: 13.4%
- growth at 10 µM [24]: -34.3%
- growth at 10 µM [25]: -10%
- GI50 [26]: 745 nM
- LC50 (concentration killing 50% of starting cells) [26]: > 50000 nM
- TGI [26]: > 50000 nM
- growth at 10 µM [27]: 12.3%
- GI50 [28]: 1420 nM
- TGI [28]: > 50000 nM
- CC50 [28, 35]: > 50000 nM
- GI50 [29]: 151 nM
- IC50 [29]: 150 nM
- LC50 [29]: > 50000 nM
- TGI [29]: 1470 nM
- GI50 [30]: 1140 nM
- IC50 [30]: 1140 nM
- TGI [30]: 4590 nM
- CC50 [30, 35]: > 50000 nM
- growth at 10 µM [31]: 11.5%
- GI50 [32]: 1110 nM
- LC50 [32]: > 50000 nM
- TGI [32]: > 50000 nM
- growth at 10 µM [33]: 0.32%
- GI50 [34]: 1560 nM
- TGI [34]: 6200 nM
- CC50 [34, 35]: > 50000 nM
